Experimental data: patent US20070004715A1, “Novel spiro-quinuclidinyl derivatives for the treatment of central nervous system disorders” (priority 2005, published 2007)
Where a name gives a salt, the structure may show the parent alone. Read-outs that look alike come from different tables or passages of the source.

Legend:
[1] = test system: Synaptosomes from guinea pig hippocampus; test: % Inhibition of AcH Release Assay (K+-evoked 3H-acetylcholine release); format: cell-based; settings: synaptosomes pre-treated with 10 μM test compound prior to 65 mM K+ stimulation
Procedure: Synaptosomes from guinea pig hippocampus were incubated with 0.1 μM ^3H-choline and then subjected to repeated washes with buffer to remove unincorporated ^3H-choline. The synaptosomes were then treated with 65 mM K^+ for 30 seconds to elicit 3H-acetylcholine release.
To determine if a test compound will inhibit acetylcholine release, the synaptosomes were pre-treated with 10 μM of the test compound prior to the K+ stimulation. The decrease or increase in acetylcholine release was then measured by superfusion.
(§1) Both the Aβ aggregation assay as described in Example 55, particularly as run using the ^125I-Aβ1-40, and the % inhibition of AcH release assay as described in Example 56, were highly variable on a run-to-run basis. However, the relative activities of the tested compounds were reproducible.

fluo-Aβ1-40 = target: T1, fluo-Aβ1-40 (Homo sapiens, UniProt P05067); test: Aβ Aggregation Assay (Synthaloid plates, fluo-Aβ1-40); format: biochemical; settings: 10 μM test compound, 100 nM fluo-Aβ1-40, 2.5 hr at room temperature; higher % = greater effectiveness at preventing aggregation
T1 construct: added 100 nM of fluo-Aβ1-40 in 100 μl
Procedure: Aβs are known to form aggregates leading to the formation of amyloid plaques that are characteristic of Alzheimer's disease.
This aggregation assay was validated using both ^125I-Aβ1-40 and fluo-Aβ1-40 in a buffer containing 50 mM HEPES, pH 7.4, 0.1% BSA, 10% FCS and protease inhibitors.
To each well of a 96-well Synthaloid plate was added 100 nM of fluo-Aβ1-40 in 100 μl. To each well was then added 10 μM of test compound. The plate was then allowed to incubate for 2.5 hr at room temperature. At the end of the incubation, unbound protein in the wells was removed by three washes using the buffer as described above. The amount of bound protein (which represents the amount of Aβ aggregation) was measured either by fluorescence measurements.
Higher fluorescence values relative to vehicle wells were interpreted as an indication of greater Aβ aggregation. […] Higher % values in the data in Table 4 below, below indicates greater effectiveness at preventing aggregation.
as §1

[2] = target: T2, M1 muscarinic receptor (M1 human CHO receptor membranes) (Homo sapiens, UniProt P11229); test: M1 Muscarinic Receptor % Inhibition Assay (SPA, tritiated scopolamine); format: binding
T2 construct: purchased Amersham 6110503; host or cells: CHO cell membranes
T2 sequence (P11229 1-460): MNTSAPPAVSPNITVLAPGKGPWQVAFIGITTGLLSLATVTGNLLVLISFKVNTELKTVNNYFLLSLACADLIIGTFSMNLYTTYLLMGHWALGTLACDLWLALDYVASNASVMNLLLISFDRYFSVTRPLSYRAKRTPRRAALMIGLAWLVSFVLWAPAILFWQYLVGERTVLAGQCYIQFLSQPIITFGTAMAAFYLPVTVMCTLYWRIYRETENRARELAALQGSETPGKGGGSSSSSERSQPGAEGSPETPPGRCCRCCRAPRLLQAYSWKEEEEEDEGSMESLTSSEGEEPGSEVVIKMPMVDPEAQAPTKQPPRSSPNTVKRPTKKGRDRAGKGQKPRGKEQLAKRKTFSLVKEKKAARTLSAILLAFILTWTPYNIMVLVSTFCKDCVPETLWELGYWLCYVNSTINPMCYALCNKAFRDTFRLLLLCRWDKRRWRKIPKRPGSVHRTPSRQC

[3] = test system: Synaptosomes from guinea pig hippocampus; settings: peptide at 100 μM; 'known to' inhibit release; cited from earlier work

T1 sequence (P05067 672-711): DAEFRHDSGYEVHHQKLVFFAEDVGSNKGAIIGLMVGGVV

Molecule	Inhibition of acetylcholine release [1] [%]	Aβ aggregation inhibition (%) (fluo-Aβ1-40)	% Inhibition @1 μM ([2]; 1 μM compound) [%]	% Inhibition @10 μM ([2]; 10 μM compound) [%]	Inhibition of acetylcholine release [3] [%]
COc1ccc(N2C(=N)CC3(CN4CCC3CC4)OC2=O)cc1 (stereo not drawn) [Compound 100, 3′-(4-methoxyphenyl)-quinuclidine-3-spiro-4′-iminooxan-2-ones trifluoroacetate salt]	34	48	–	–	–
Cc1ccc(N2C(=N)CC3(CN4CCC3CC4)OC2=O)cc1 (stereo not drawn) [Compound 101, 3′-(4-methylphenyl)-quinuclidine-3-spiro-4′-iminooxan-2-ones trifluoroacetate salt]	24	27	–	–	–
N=C1CC2(CN3CCC2CC3)OC(=O)N1c1ccc(Cl)c(Cl)c1 (stereo not drawn) [Compound 104, 3′-(3,4-dichlorophenyl)-quinuclidine-3-spiro-4′-iminooxan-2-ones trifluoroacetate salt]	43	0	–	–	–
Cc1cc(C)cc(N2C(=N)CC3(CN4CCC3CC4)OC2=O)c1 (stereo not drawn) [Compound 106, 3′-(3,5-dimethylphenyl)-quinuclidine-3-spiro-4′-iminooxan-2-ones trifluoroacetate salt]	18	80	–	–	–
N=C1CC2(CN3CCC2CC3)OC(=O)N1c1cc(Cl)cc(Cl)c1 (stereo not drawn) [Compound 107, 3′-(3,5-dichlorophenyl)-quinuclidine-3-spiro-4′-iminooxan-2-ones trifluoroacetate salt]	54	30	–	–	–
N=C1CC2(CN3CCC2CC3)OC(=O)N1c1cccc(Cl)c1 (stereo not drawn) [Compound 108, 3′-(3-chlorophenyl)-quinuclidine-3-spiro-4′-iminooxan-2-ones trifluoroacetate salt]	63	70	–	–	–
Cc1ccc(N2C(=N)CC3(CN4CCC3CC4)OC2=O)cc1Cl (stereo not drawn) [Compound 109, 3′-(3-chloro-4-methylphenyl)-quinuclidine-3-spiro-4′-iminooxan-2-ones trifluoroacetate salt]	33	80	90	98	–
Aβ1-40: β-amyloid peptide 1-40, known to inhibit acetylcholine release from synaptosomes	–	–	–	–	33
Aβ1-42: β-amyloid1-42 peptide, forms oligomers, fibrils and amyloid plaques	–	–	–	–	33
